# Test results from paper PMC10930102 (Journal of Enzyme Inhibition and Medicinal Chemistry, 2024).
# Like-named read-outs stand apart in the source and are kept apart here.
# How the values were obtained:
# HDAC1 = biological target: T1, HDAC1 (Homo sapiens, UniProt Q13547); assay: HDAC inhibition assay (fluorogenic peptide, Reaction Biology); type: biochemical; details: tested once, ten-dose starting at 30 µM
# T1 construct: purchased Reaction Biology Corporation; host or cells: baculovirus expression system in SF9 cells
# T1 sequence (Q13547 whole entry): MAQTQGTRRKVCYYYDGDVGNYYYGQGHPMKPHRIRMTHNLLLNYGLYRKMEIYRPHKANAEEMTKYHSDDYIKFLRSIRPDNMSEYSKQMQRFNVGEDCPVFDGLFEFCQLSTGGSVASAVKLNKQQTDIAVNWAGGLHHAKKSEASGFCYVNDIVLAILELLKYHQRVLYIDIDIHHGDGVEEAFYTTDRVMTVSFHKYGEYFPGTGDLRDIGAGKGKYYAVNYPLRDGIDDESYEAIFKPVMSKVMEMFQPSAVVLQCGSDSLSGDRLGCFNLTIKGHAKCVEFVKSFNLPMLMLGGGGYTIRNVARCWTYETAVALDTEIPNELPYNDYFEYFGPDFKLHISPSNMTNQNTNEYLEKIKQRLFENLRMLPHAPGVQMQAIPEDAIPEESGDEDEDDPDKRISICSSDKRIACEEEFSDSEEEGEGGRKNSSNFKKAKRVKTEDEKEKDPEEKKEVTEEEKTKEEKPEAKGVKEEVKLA
# ALK = biological target: T2, ALK (Homo sapiens, UniProt Q9UM73); assay: ALK in vitro enzymatic assay (radioisotope P81 filter-binding, Reaction Biology); type: biochemical
# T2 construct: purchased Reaction Biology Corporation
# T2 sequence (Q9UM73 19-1620): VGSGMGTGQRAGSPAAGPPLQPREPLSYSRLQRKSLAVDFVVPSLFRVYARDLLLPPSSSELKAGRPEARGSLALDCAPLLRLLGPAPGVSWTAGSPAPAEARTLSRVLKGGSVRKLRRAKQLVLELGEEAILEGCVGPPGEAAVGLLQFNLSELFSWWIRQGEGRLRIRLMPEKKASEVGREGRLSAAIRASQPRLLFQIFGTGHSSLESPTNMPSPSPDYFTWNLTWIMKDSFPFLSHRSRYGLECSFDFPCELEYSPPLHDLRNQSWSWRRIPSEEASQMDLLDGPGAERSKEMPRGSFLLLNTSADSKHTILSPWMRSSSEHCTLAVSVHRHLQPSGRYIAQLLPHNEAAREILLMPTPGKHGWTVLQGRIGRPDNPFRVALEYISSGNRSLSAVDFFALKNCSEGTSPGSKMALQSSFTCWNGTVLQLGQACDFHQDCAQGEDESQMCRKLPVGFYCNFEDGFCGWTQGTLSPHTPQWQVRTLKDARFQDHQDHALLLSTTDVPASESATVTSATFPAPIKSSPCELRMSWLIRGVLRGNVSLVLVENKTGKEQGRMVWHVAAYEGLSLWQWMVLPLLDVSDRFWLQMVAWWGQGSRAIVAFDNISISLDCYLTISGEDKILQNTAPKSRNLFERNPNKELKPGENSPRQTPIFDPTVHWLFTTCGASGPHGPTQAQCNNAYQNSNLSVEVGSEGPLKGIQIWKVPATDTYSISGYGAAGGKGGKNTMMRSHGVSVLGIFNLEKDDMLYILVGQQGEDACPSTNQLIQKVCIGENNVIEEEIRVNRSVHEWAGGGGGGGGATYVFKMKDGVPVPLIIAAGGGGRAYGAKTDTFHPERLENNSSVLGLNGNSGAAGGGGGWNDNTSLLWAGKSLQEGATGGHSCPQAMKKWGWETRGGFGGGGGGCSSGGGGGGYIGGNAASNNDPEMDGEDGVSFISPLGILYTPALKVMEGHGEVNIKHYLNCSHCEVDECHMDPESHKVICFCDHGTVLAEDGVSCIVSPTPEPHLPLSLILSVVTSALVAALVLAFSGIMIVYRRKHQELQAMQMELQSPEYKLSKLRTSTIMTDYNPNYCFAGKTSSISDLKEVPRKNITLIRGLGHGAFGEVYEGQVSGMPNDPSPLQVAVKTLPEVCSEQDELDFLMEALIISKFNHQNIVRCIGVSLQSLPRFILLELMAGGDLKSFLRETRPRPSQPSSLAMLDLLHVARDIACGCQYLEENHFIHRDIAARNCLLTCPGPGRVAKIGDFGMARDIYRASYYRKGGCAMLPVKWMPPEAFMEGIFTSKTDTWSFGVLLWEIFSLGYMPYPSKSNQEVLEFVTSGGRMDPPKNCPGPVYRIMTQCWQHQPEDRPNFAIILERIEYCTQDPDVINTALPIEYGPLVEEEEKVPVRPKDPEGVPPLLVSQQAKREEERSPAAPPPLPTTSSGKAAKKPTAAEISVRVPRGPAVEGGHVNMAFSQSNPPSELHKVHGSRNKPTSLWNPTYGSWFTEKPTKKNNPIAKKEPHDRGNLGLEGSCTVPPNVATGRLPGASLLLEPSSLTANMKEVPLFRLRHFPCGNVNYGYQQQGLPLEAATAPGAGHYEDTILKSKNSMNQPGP
# HDAC11 = biological target: T3, HDAC11 (Homo sapiens, UniProt Q96DB2); assay: HDAC inhibition assay (fluorogenic peptide, Reaction Biology); type: biochemical; details: tested once, ten-dose starting at 30 µM
# T3 construct: purchased Reaction Biology Corporation; host or cells: baculovirus expression system in SF9 cells
# T3 sequence (Q96DB2 1-347): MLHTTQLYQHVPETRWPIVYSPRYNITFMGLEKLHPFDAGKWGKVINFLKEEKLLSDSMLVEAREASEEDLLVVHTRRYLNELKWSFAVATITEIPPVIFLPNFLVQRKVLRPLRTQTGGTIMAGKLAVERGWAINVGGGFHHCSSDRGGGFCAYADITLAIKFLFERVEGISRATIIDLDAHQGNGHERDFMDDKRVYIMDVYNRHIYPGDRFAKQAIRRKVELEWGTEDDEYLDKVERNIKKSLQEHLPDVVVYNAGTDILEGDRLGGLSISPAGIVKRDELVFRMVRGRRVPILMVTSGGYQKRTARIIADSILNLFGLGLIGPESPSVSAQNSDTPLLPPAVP
# HDAC8 = biological target: T4, HDAC8 (Homo sapiens, UniProt Q9BY41); assay: HDAC inhibition assay (fluorogenic diacylpeptide, Reaction Biology); type: biochemical; details: tested once, ten-dose starting at 30 µM
# T4 construct: purchased Reaction Biology Corporation; host or cells: baculovirus expression system in SF9 cells
# T4 sequence (Q9BY41 1-377): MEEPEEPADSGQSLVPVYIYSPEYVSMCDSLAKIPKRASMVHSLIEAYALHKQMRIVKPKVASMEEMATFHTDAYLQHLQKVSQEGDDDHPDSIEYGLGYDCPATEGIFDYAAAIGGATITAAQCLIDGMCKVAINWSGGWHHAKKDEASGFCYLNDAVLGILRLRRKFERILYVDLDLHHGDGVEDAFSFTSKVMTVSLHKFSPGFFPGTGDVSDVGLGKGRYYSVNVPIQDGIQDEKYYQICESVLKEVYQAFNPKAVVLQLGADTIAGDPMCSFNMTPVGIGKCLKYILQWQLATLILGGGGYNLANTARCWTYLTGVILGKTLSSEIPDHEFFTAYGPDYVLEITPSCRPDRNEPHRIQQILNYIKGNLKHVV
# HDAC6 = biological target: T5, HDAC6 (Homo sapiens, UniProt Q9UBN7); assay: HDAC inhibition assay (fluorogenic peptide, Reaction Biology); type: biochemical; details: tested once, ten-dose starting at 30 µM
# T5 construct: purchased Reaction Biology Corporation; host or cells: baculovirus expression system in SF9 cells
# T5 sequence (Q9UBN7 1-1215): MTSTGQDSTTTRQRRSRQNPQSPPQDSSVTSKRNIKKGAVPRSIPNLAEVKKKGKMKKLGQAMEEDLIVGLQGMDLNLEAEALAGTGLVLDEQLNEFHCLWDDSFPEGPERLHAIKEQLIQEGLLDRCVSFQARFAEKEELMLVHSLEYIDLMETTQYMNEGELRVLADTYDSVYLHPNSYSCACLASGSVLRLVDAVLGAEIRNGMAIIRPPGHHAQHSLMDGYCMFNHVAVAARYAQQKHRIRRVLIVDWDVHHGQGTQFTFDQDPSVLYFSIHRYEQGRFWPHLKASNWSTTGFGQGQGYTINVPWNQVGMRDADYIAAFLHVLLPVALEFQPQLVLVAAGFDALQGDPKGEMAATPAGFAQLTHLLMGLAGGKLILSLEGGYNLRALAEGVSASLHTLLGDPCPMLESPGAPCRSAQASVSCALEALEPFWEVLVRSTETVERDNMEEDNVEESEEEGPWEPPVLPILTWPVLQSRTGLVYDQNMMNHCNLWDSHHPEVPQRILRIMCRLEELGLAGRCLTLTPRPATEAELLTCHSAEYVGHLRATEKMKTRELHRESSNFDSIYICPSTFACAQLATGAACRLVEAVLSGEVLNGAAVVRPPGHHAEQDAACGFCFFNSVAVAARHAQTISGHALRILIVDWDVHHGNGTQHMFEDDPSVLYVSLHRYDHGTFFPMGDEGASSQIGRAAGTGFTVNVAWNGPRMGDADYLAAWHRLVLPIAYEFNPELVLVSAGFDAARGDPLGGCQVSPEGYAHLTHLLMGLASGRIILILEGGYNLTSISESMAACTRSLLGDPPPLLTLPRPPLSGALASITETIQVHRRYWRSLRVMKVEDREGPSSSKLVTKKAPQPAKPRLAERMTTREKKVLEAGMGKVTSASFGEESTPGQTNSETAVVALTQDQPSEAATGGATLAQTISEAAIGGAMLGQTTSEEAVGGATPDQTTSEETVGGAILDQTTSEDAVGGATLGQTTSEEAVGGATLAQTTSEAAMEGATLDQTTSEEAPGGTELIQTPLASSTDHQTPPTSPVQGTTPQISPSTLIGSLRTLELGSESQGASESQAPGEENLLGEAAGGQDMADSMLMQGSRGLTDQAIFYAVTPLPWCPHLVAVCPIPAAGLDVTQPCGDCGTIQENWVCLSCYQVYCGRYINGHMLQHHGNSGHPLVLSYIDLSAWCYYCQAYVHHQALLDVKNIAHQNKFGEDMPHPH
# [1] = tested on: acetylated histone H3, a substrate of class I HDAC; assay: Western blot of acetylated histone H3 in H2228 cells; type: cell-based, human; details: 6 h, 3b 2 µM
# Description: (§1) Figure 4. Effect of test compounds on H2228 cells. […] (A) Western blots of phosphorylated tyrosine residue 1640 on ALK as well as acetylated (Ac) α-tubulin and histone H3 with their corresponding total proteins for normalisation. GAPDH was used as a loading control. (B) Quantification of western blotting results using Image J. Error bars indicate ± S.D.E. *p-Value ≤ 0.05, **p-value ≤ 0.01, ***p-value ≤ 0.001.
# Treated cells were washed three times with ice-cold phosphate-buffered saline and lysed in lysis buffer containing 100 mM Tris-HCl, 12 mM sodium deoxycholate, 12 mM sodium lauroylsarcosinate, and protease inhibitor cocktail (BioTools). Cells were heated in lysis buffer at 95 °C for 5 min and then the cell membrane was broken up by sonication (Bioruptor). Cellular debris and unbroken cells were removed by centrifugation (12,500 × g for 30 min, 4 °C). Protein concentration was determined using the bicinchoninic acid assay (Thermo). Cell extracts (20 μg) were resolved by 12% sodium dodecyl sulfate-polyacrylamide gel electrophoresis (SDS-PAGE), transferred to PVDF membranes, and probed separately with antibodies for Ac-histone H3, Ac-α-tubulin, histone H3, α-tubulin, HDAC1, HDAC6, HDAC8 and GAPDH. […] Antibody signals were detected using an enhanced chemiluminescence system.
# [2] = tested on: phosphorylation level of Y1604 on ALK; assay: Western blot of ALK phosphorylation in H2228 cells; type: cell-based, human; details: 6 h, 3b 2 µM, 3c 4 µM
# Description: as §1
# (§2) Treated cells were washed three times with ice-cold phosphate-buffered saline and lysed in lysis buffer containing 100 mM Tris-HCl, 12 mM sodium deoxycholate, 12 mM sodium lauroylsarcosinate, and protease inhibitor cocktail (BioTools). Cells were heated in lysis buffer at 95 °C for 5 min and then the cell membrane was broken up by sonication (Bioruptor). Cellular debris and unbroken cells were removed by centrifugation (12,500 × g for 30 min, 4 °C). Protein concentration was determined using the bicinchoninic acid assay (Thermo). Cell extracts (20 μg) were resolved by 12% sodium dodecyl sulfate-polyacrylamide gel electrophoresis (SDS-PAGE), transferred to PVDF membranes, and probed separately with antibodies for Ac-histone H3, Ac-α-tubulin, histone H3, α-tubulin, HDAC1, HDAC6, HDAC8 and GAPDH. The antibodies of GAPDH, HDAC1, and HDAC8 were purchased from ABclonal and all other antibodies were from Cell Signalling Technology. Antibody signals were detected using an enhanced chemiluminescence system.
# H2228 = assay: SRB antiproliferation assay; type: cell-based; details: Homo sapiens, NCI-H2228, 48 h, ALK-addicted cells, read-out: Antiproliferative activity (IC50) H2228
# MCF7 = assay: SRB antiproliferation assay; type: cell-based; details: Homo sapiens, 48 h, read-out: Antiproliferative activity (IC50) MCF7
# U87MG = assay: SRB antiproliferation assay; type: cell-based; details: Homo sapiens, U-87 MG, 48 h, read-out: Antiproliferative activity (IC50) U87MG
# A549 = assay: SRB antiproliferation assay; type: cell-based; details: Homo sapiens, 48 h, read-out: Antiproliferative activity (IC50) A549
# [3] = tested on: protein expression level of HDAC1, HDAC6, or HDAC8; assay: Western blot of HDAC protein expression; type: cell-based, human; details: western blot after treatment (supplemental Figure S3)
# Procedure: as §2
# Figure S3. Western blots of HDAC1, HDAC6, and HDAC8 after drug treatment and vehicle control
# activity was assessed by MTS assay, and the concentration of inhibitors was determined to be half of their
# was tested five times, and the results were normalized to 1. (blank) […]
# CYP1A2 = biological target: T6, CYP1A2 (Homo sapiens, UniProt P05177); assay: CYP450 inhibition assay; type: in vitro ADME; details: human recombinant enzyme
# T6 construct: purchased Reaction Biology Corporation; host or cells: CYP cDNA baculovirus expression systems
# T6 sequence (P05177 whole entry): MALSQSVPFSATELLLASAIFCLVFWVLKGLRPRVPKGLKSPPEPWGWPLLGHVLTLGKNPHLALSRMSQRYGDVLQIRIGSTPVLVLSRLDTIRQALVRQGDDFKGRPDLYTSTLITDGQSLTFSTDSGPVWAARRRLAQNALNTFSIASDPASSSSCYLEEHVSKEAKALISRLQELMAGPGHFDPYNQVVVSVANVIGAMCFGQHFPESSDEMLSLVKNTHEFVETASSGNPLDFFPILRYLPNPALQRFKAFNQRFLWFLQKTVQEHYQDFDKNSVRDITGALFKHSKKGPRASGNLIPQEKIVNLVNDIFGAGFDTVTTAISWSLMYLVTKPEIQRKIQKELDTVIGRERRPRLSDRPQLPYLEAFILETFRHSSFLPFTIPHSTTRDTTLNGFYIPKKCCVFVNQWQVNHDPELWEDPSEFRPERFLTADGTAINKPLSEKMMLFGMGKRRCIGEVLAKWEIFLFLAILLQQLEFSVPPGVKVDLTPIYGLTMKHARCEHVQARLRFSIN
# CYP2C19 = biological target: T7, CYP2C19 (Homo sapiens, UniProt P33261); assay: CYP450 inhibition assay; type: in vitro ADME; details: human recombinant enzyme
# T7 construct: purchased Reaction Biology Corporation; host or cells: CYP cDNA baculovirus expression systems
# T7 sequence (P33261 whole entry): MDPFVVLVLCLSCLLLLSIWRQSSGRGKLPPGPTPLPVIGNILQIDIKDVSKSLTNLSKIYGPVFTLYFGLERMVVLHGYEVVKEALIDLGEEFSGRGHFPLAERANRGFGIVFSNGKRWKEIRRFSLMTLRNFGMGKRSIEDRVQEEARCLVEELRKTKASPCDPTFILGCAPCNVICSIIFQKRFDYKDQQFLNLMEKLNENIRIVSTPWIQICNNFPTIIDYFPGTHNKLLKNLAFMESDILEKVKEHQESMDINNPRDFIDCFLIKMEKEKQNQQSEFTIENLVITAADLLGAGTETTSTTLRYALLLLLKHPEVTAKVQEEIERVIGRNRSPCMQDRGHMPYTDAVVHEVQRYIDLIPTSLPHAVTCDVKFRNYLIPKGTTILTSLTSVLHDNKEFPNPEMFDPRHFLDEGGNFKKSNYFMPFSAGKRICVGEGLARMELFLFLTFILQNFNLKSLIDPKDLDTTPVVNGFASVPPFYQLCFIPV
# Procedure: Assays were performed by Reaction Biology Corporation. […] CYP assays used human recombinant CYP1A2, CYP2C9, CYP2C19, CYP2D6, and CYP3A4 expressed in CYP cDNA baculovirus expression systems. […] Substrates used were 3-cyano-7-ethoxycoumarin for CYP1A2, 2C19, and 2D6; Vivid OOMR Substrate for CYP2C9; and Vivid BOMR Substrate for CYP3A4. hERG inhibition assays involved a binding competition between the tested compounds and a fluorescently labelled compound tracer (Predictor hERG Tracer Red) for membrane-bound hERG (Predictor hERG Membrane). E-4031 served as the positive control.
# [4] = 20 μM ATP, ten-dose IC50 mode, duplicate, average
structure (smiles),measurement,setting,value
"CC(C)NC(=O)CCCn1/c(=N/C(=O)c2cc(F)cc(F)c2)[nH]c2cc(/C=C/C(=O)NO)ccc21 [Compound 3d, (E)-3,5-Difluoro-N-(5-((E)-3-(hydroxyamino)-3-oxoprop-1-en-1-yl)-1–(4-(isopropylamino)-4-oxobutyl)-1H-benzo[d]imidazol-2(3H)-ylidene)benzamide]",IC50,HDAC1,> 30000 nM
same,IC50,ALK; [4],3730 nM
same,IC50,HDAC11,> 30000 nM
same,IC50,HDAC8,7770 nM
same,IC50,HDAC6,2470 nM
"CCCCc1nc2cc(/C=C/C(=O)NO)ccc2n1CCN(CC)CC [Pracinostat (2), Pracinostat, reference compound]",acetylated histone H3 level,[1],highest level of acetylated histone
same,phosphorylation level of Y1604 on ALK,[2],enhanced the ALK kinase activity
same,IC50,H2228,690 ± 50 nM
"C[C@@H](Oc1cc(-c2cnn(C3CCNCC3)c2)cnc1N)c1c(Cl)ccc(F)c1Cl [Crizotinib, reference compound]",IC50,MCF7,95 ± 24 nM
same,IC50,H2228,130 ± 50 nM
same,IC50,U87MG,48 ± 8 nM
"CC(C)NC(=O)CCCn1/c(=N/C(=O)c2ccccc2)[nH]c2cc(/C=C/C(=O)NO)ccc21 [Compound 3a, (E)-N-(5-((E)-3-(Hydroxyamino)-3-oxoprop-1-en-1-yl)-1–(4-(isopropylamino)-4-oxobutyl)-1H-benzo[d]imidazol-2(3H)-ylidene)benzamide]",IC50,HDAC1,6180 nM
same,IC50,ALK; [4],5750 nM
same,IC50,HDAC11,9350 nM
same,IC50,HDAC8,2950 nM
same,IC50,HDAC6,810 nM
"CC(C)NC(=O)CCCn1/c(=N/C(=O)c2ccccc2)[nH]c2cc(Br)ccc21 [Compound 6, (E)-N-(5-Bromo-1–(4-(isopropylamino)-4-oxobutyl)-1H-benzo[d]imidazol-2(3H)-ylidene)benzamide]",inhibition at 10 µM,"ALK; single dose at 10 μM, duplicate, average, read-out: ALK relative inhibition of enzymatic activity",18.8%
"CCCC(=O)/N=c1\[nH]c2cc(/C=C/C(=O)NO)ccc2n1CCCC(=O)NC(C)C [Compound 3e, 4-((E)-2-(butyrylimino)-5-((E)-3-(hydroxyamino)-3-oxoprop-1-en-1-yl)-2,3-dihydro-1H-benzo[d]imidazol-1-yl)-N-isopropylbutanamide]",IC50,HDAC1,840 nM
same,IC50,ALK; [4],> 10000 nM
same,IC50,HDAC11,1420 nM
same,IC50,HDAC8,1780 nM
same,IC50,HDAC6,210 nM
"CC(C)NC(=O)[C@H]1CC[C@@H](n2/c(=N/C(=O)c3ccccc3)[nH]c3ccc(/C=C/C(=O)NO)cc32)CC1 [Compound 3c, (E)-N-(6-((E)-3-(Hydroxyamino)-3-oxoprop-1-en-1-yl)-1-((1S,4S)-4-(isopropylcarbamoyl)cyclohexyl)-1H-benzo[d]imidazol-2(3H)-ylidene)benzamide]",IC50,A549,7260 ± 2660 nM
same,IC50,MCF7,980 ± 30 nM
same,IC50,HDAC1,> 30000 nM
same,IC50,ALK,15 nM
same,IC50,ALK; [4],5.2 nM
same,fold greater ALK inhibition ability,ALK; hydroxamate moved from C-5 to C-6 position (versus 3b),3 fold
same,IC50,HDAC11,> 30000 nM
same,IC50,HDAC8,2870 nM
same,phosphorylation level of Y1604 on ALK,[2],significantly decreased
same,IC50,H2228,210 ± 70 nM
same,"protein expression level of HDAC1, HDAC6, or HDAC8",[3],not perturbed
same,IC50,HDAC6,2340 nM
same,IC50,U87MG,11100 ± 810 nM
CC(C)NC(=O)[C@H]1CC[C@@H](n2/c(=N/C(=O)c3ccccc3)[nH]c3cc(NC(=O)CCCCCCC(=O)NO)ccc32)CC1 [Compound 3f],IC50,HDAC1,2290 nM
same,IC50,ALK; [4],15 nM
same,IC50,HDAC11,1720 nM
same,IC50,HDAC8,2520 nM
same,IC50,HDAC6,100 nM
"CC(=O)N1CCN(c2ccc(OCC3COC(Cn4ccnc4)(c4ccc(Cl)cc4Cl)O3)cc2)CC1 (stereo not drawn) [Ketoconazole, reference compound]",IC50,CYP1A2,590 nM
same,IC50,CYP2C19,1300 nM
